Data reported in patent US12281299B2, “Control of nitrogen fixation in rhizobia that associate with cereals” (Massachusetts Institute of Technology, priority 2019, dated 2025).
Counter-ions that a name gives are not always drawn.

test system: R. sp. IRBG74; experiment: Genetic part characterization for Rhizobia (promoters, RBSs, terminators, inducible systems; fluorescence reporter, flow cytometry); format: cell-based, Rhizobium sp.; details: synthetic RBS strength in R. sp. IRBG74; plasmid pMR-40, IPTG-inducible system, 1 mM IPTG induction
Text: Construction and characterization genetic parts for Rhizobia. Genetic part libraries were built on a pBBR1-ori plasmid pMR-1 using Gibson assembly (New England Biolabs, Cat # E2611). The fluorescence proteins, GFPmut3b and mRFP1 were used as reporters. The Anderson promoter library (Anderson, J. et al. BglBricks: A flexible standard for biological part assembly. 4, 1 (2010)) on the BioBricks Registry were utilized for the characterization of constitutive promoters (FIGS. 11A-11C). To characterize inducible promoters, a regulator protein is constitutively expressed by the PlacIq promoter, and GFP expression is driven by a cognate inducible promoter from the opposite direction, facilitating replacement of the reporter with gene of interest (e.g., T7 RNAP and nifA) and transfer of the controller unit across different plasmid backbones for diverse microbes. The following combinations of cognate regulators and inducible promoters were characterized. IPTG inducible LacI-A1lacO1, DAPG inducible PhlF-PPhl, aTc inducible TetR-PTet, 3OC6HSL inducible LuxR-PLux, salicylic acid inducible NahR-PSal, and cuminic acid inducible CymR-PCym systems were optimized for R. sp. IRBG74 (FIG. 14). Opine inducible OccR-Pocc, and nopaline inducible NocR-Pnoc systems were optimized for A. caulinodans (FIGS. 20A-20F and Tables 9 and 10). For RBS characterization, an IPTG-inducible GFP expression plasmid pMR-40 was used and GFP was expressed to the highest levels with 1 mM IPTG (FIGS. 12A-12B). RBS library for GFP was designed using the RBS library calculator at the highest-resolution mode, and the 3′ end of the 16S rRNA sequences were adjusted according to the species (3′-ACCTCCTTC-5′ for R. sp. IRBG74). Terminators for T7 RNAP were characterized by placing a terminator between two fluorescence reporters expressed from a single T7 wild-type promoter located upstream of the first fluorescence protein GFP. The expression of the two fluorescence proteins is enabled by the controller strain MR18 encoding the IPTG-inducible T7 RNAP system by 1 mM IPTG (FIGS. 13A-13B). The terminator strength (Ts) was determined by normalizing fluorescence levels of a terminator construct by a reference construct pMR-66 where a 40 bp spacer was placed between the reporters. All genetic parts for Rhizobia were characterized as follows.

| Compound | Strength (GFP, au) |
| --- | --- |
| RB5r2 (DNA ATTTCACACATCTAGAGCTAATCATCGCGTACTCAGGAGGCAAGTAATG; chemistry not fully specified) | 7181.5 au |
| RBST-21 (DNA TAACAATTTCACACATCTAGAGCTAATCATCGCGTACTCAGCAGGCAAGTAATG; chemistry not fully specified) | 183 au |
| RB5r5 (DNA TAACAATTTCACACATCTAGAGCTAATCATCGCGTACTAAGGAGGCAAGTAATG; chemistry not fully specified) | 3560 au |
| RBST-17 (DNA TAACAATTTCACACATCTAGAGCTAATCTTCTCGTACTAAAGAGGCAAGTAATG; chemistry not fully specified) | 488 au |
| RBST-22 (DNA TAACAATTTCACACATCTAGAGCTAATCTTCGCGTACTAAGTAGGCAAGTAATG; chemistry not fully specified) | 130 au |
| RBST-12 (DNA TAACAATTTCACACATCTAGAGCTAATCATCGCGTACTAAAAAGGCAAGTAATG; chemistry not fully specified) | 1138 au |
| RBST-28 (DNA TAACAATTTCACACATCTAGAGCTAATCTTCGCGTACTAAGAACGCAAGTAATG; chemistry not fully specified) | 13 au |
| RBST-16 (DNA TAACAATTTCACACATCTAGAGCTAATCATCTCGTACTAATAAGGCAAGTAATG; chemistry not fully specified) | 532 au |
| RB5r8 (DNA TAACAATTTCACACATCTAGAGCTAATCATCTCGTACTCAGGAGGCAAGTAATG; chemistry not fully specified) | 1882.5 au |
| RBST-26 (DNA TAACAATTTCACACATCTAGAGCTAATCATCTCGTACTAAGCACGCAAGTAATG; chemistry not fully specified) | 36 au |
| RB5r6 (DNA TAACAATTTCACACATCTAGAGCTAATCATCGCGTACTCAAGAGGCAAGTAATG; chemistry not fully specified) | 2614.5 au |

test system: P. protegens Pf-5; experiment: Genetic part characterization for P. protegens (promoters, RBSs, terminators, inducible systems; fluorescence reporter, flow cytometry); format: cell-based, Pseudomonas protegens; details: P. protegens Pf-5, pRO1600 plasmid
Text: Construction and characterization genetic parts for P. protegens. Genetic part libraries were built on a pRO1600-ori plasmid pMR-2 using Gibson assembly (New England Biolabs, Cat # E2611). The fluorescence proteins, GFPmut3b and mRFP1 were used as reporters. The Anderson promoter library on the BioBricks Registry were utilized for the characterization of constitutive promoters (FIGS. 11A-11C). The following combinations of cognate regulators and inducible promoters were characterized. IPTG inducible LacI-Ptac, DAPG inducible PhlF-PPhl, aTc inducible TetR-PTet, 3OC6HSL inducible LuxR-PLux, arabinose inducible AraC-PBAD, cuminic acid inducible CymR-PCym, and naringenin inducible FdeR-PFde were optimized (FIGS. 15A-15C). […] RBS library for GFP was designed using the RBS library calculator at the highest-resolution mode, and the 3′ end of the 16S rRNA sequences were adjusted according to the species (3′-ACCTCCTTA-5′ for P. protegens Pf-5). Terminators for T7 RNAP were characterized by placing a terminator between two fluorescence reporters expressed from a single T7 wild-type promoter located upstream of the first fluorescence protein GFP. The expression of the two fluorescence proteins is enabled by an IPTG-inducible T7 RNAP expression system of the controller strain MR7 (FIGS. 13A-13B). All genetic parts for P. protegens Pf-5 were characterized as follows.

| Compound | function of inducible system |
| --- | --- |
| CC(C)c1ccc(C(=O)O)cc1 [cuminic acid, Cuminic acid, reference compound] | functional |
| O=C1C[C@@H](c2ccc(O)cc2)Oc2cc(O)cc(O)c21 [naringenin, Naringenin, reference compound] | functional |
| CCCC(=O)CC(=O)N[C@H]1CCOC1=O [3OC6HSL, N-(3-Oxohexanoyl)-L-homoserine lactone, reference compound] | functional |
| Cc1c2c(c(O)c3c(O)cccc13)C(=O)[C@]1(O)C(=O)C(C(N)=O)=C(O)[C@@H](N(C)C)[C@@H]1C2 [aTc, Anhydrotetracycline hydrochloride, reference compound] | functional |

same assay, conditions: synthetic RBS strength in P. protegens Pf-5; plasmid pMR-65, arabinose-inducible system, 7 μM arabinose induction

| Compound | Strength (GFP, au) |
| --- | --- |
| RBSp23 (DNA GAATTCTAAGCTCACGGACAGGAGGGTCGGATG; expressed or natural sequence) | 3829 au |
| RBSp9 (DNA GAATTCTTAACTAACGGACAGGAGGGTCCGATG; expressed or natural sequence) | 11490 au |
| RBSp24 (DNA GAATTCTCAACTCACGGACAGGAGGGTCGGATG; expressed or natural sequence) | 3661 au |
| RBSp31 (DNA GAATTCTCCGCTCACGGACAGGAGGGTCCGATG; expressed or natural sequence) | 23.3 au |
| RBSp7 (DNA GAATTCTAAACTAACGGACAGGAGGGTCCGATG; expressed or natural sequence) | 13390 au |
| RBSp27 (DNA GAATTCTCAGCTAACGGACAGCAGGGTCGGATG; expressed or natural sequence) | 1265 au |
| RBSp11 (DNA GAATTCTACGCTAACGGACAGGAGGGTCCGATG; expressed or natural sequence) | 10390 au |
| RBSp30 (DNA GAATTCTACGCTCACGGACAGCAGGGTCGGATG; expressed or natural sequence) | 221 au |
| RBSp29 (DNA CTAGCGAAGGTCCAACCTTTTTCTAAGCCAGTAGGTCATATG; expressed or natural sequence) | 377 au |
| RBSp25 (DNA GAATTCTACACTAACGGACAGCAGGGTCGGATG; expressed or natural sequence) | 3542 au |
| R135132 (DNA CTAGCGAAGGTCCAACGTTTTTCTAAGCAAGGAGGTCATATG; chemistry not fully specified) | 21590 au |
| RBSp15 (DNA GAATTCTCAACTAACGGACAGGAGGGTCCGATG; expressed or natural sequence) | 7596 au |
| RBSp4 (DNA CTAGCGCAGGTCCAACGTTTTTCTAAGCCAGGAGGTCATATG; expressed or natural sequence) | 19490 au |
| RBSp12 (DNA GAATTCTCAACTAACGGACAGGAGGGTCCGATG; expressed or natural sequence) | 9590 au |
| RBSp10 (DNA GAATTCTACACTAACGGACAGGAGGGTCGGATG; expressed or natural sequence) | 11090 au |
| RBSp16 (DNA GAATTCTACGCTAACGGACAGGAGGGTCGGATG; expressed or natural sequence) | 6055 au |
| RBSp1 (DNA CTAGCGCAGGTCCAACGTTTTTCTAAGCAAGGAGGTCATATG; expressed or natural sequence) | 25090 au |
| RBSp17 (DNA GAATTCTCAACTAACGGACAGGAGATATACATATG; expressed or natural sequence) | 5939 au |
| RBSp18 (DNA GAATTCTCAGCTAACGGACAGGAGGGTCGGATG; expressed or natural sequence) | 5915 au |
| RBSp28 (DNA CTAGCGCAGGTCCAACCTTTTTCTAAGCAACTAGGTCATATG; expressed or natural sequence) | 389 au |
| RBSp20 (DNA GAATTCTCAGCTCACGGACAGGAGGGTCGGATG; expressed or natural sequence) | 4426 au |
| RBSp14 (DNA GAATTCTCAGCTAACGGACAGGAGGGTCCGATG; expressed or natural sequence) | 8766 au |
| RBSp22 (DNA GAATTCTACACTCACGGACAGGAGGGTCGGATG; expressed or natural sequence) | 3977 au |
| RBSp8 (DNA GAATTCTAAGCTAACGGACAGGAGGGTCCGATG; expressed or natural sequence) | 12790 au |
| RBSp19 (DNA GAATTCTAAACTAACGGACAGGAGGGTCGGATG; expressed or natural sequence) | 4867 au |
| RBSp13 (DNA GAATTCTAAGCTAACGGACAGGAGGGTCGGATG; expressed or natural sequence) | 8918 au |
| RBSp21 (DNA GAATTCTCAACTAACGGACAGGAGGGTCGGGATG; expressed or natural sequence) | 4110 au |
| R135133 (DNA CTAGCGAAGGTCCAACGTTTTTCTAAGCCAGGAGGTCATATG; chemistry not fully specified) | 19690 au |
| R135135 (DNA CTAGCGAAGCTCCAACGTTTTTCTAAGCAAGGAGGTCATATG; chemistry not fully specified) | 17990 au |
| RBSp6 (DNA GAATTCTACACTAACGGACAGGAGGGTCCGATG; expressed or natural sequence) | 14490 au |
